Results as given in patent US9428465B2, “Acid ceramidase inhibitors and their use as medicaments” (FONDAZIONE ISTITUTO ITALIANO DI TECHNOLOGIA, priority 2012, dated 2016).

Key:
SW403 cells [1] = assay: SW403 cell viability, trypan blue assay; assay type: cell-based, human; settings: prolonged (72 hrs) treatment, concentration-response, FIGS. 2A and 2B
Protocol: (§1) Cells were seeded in 12- or 96-well plates in complete medium 24 hrs before treatment and then incubated for 24 hrs (single treatment) or 72 hrs (multiple treatments) with different drug concentrations in media without serum. Cell viability was then evaluated.
The trypan blue exclusion assay is based on the principle that viable cells have intact cell membrane and can therefore exclude the trypan blue dye. Cell viability was measured after 24 hrs incubation with the drug. Cells were harvested, centrifuged at 1200 rpm for 10 min and pellets re-suspended in PBS. To evaluate viability, cells were diluted 1:1 with 0.4% trypan blue dye (Sigma), incubated for 1 min and white (viable) cells were counted with a hemacytometer.

[2] = system: human colon adenocarcinoma cell line SW403; assay: Ceramide levels in SW403 cells (lipid extraction, LC/MS); assay type: cell-based; settings: 3 μM, 3 hrs, vs. vehicle
Protocol: Lipids were extracted using a chloroform/methanol mixture (2:1 vol/vol, 3 mL) containing internal standards. The organic phases were collected, dried under nitrogen, and dissolved in methanol/chloroform (3:1 vol/vol) for LC/MS analyses.
Ceramides were analyzed by LC/MS^n, using a 1100-LC system (Agilent Technologies) equipped with an Ion Trap XCT and interfaced with ESI (Agilent Technologies). They were separated on a Poroshell 300 SB C18 column (2.1×75 mm i.d., 5 μm; Agilent Technologies) maintained at 30° C. A linear gradient of methanol in water containing 5 mM ammonium acetate and 0.25% acetic acid (from 80% to 100% of methanol in 3 man) was applied at a flow rate of 1 mL/min. […]
Tissue-derived ceramides were identified by comparison of their LC retention times and MS^n fragmentation patterns with those of authentic standards (Avanti Polar Lipids). Extracted ion chromatograms were used to quantify myristoyl ceramide (C140, m/z 510.5>492.5>264.3), palmitoyl ceramide (C16:0, m/z 538.5>520.3>264.3), stearoyl ceramide (C18:0 m/z 566.5>548.3>264.3), lignoceroylceramide (C24:0 m/z 650.5>632.3>264.3), nervonoylceramide (C24:1 m/z 648.5>630.3>264.3) and using lauroyl ceramide standard (m/z 482.5>464.5>264.3). […]

SW403 cells [3] = assay: Isobolographic analysis of combined treatment of SW403 cells (ED50, trypan blue assay); assay type: cell-based, human
Protocol: Interaction between drugs was assessed by isobolographic analysis, based on the concept of dose-equivalence which follows from the dose effect curves of the individual drugs (Tallarida R I, Interactions between drugs and occupied receptors. Pharmacol. Ther. 2007, 113, 197-209; Tallarida R J, Raffa R B, The application of drug dose equivalence in the quantitative analysis of receptor occupation and drug combinations. Pharmacol. Ther. 2010; 127, 165-174). Specifically, the individual drugs' potency and efficacy allow calculating the expected effect of a combination of the two drugs.
In the experiment of combined treatment, isobolograms were constructed by plotting on vertical and horizontal axes the ED50 data of the single drugs measured by trypan blue assay after subcronic treatment for 72 hrs. The straight line with axial intercepts represents the isobole of additivity and allows calculating the theoretical additive dose. Synergism is indicated by an observed pair (x, y) that plots below the isobole for the specified effect, whereas sub-additivity is indicated when an observed pair (x, y) plots above the isobole.

[4] = molecular target: rat acid ceramidase (rAC) (Rattus norvegicus (Rat), UniProt Q6P7S1); assay: Rat acid ceramidase (rAC) enzymatic assay, LC/MS of lauric acid; assay type: biochemical; settings: rat acid ceramidase, 100 μM N-lauroyl ceramide, pH 4.5
Protocol: A lysosomal rat acid ceramidase (rAC) protein preparation was obtained from cells stably expressing rAC resuspended in 20 mM Tris HCl (pH 7.5) with 0.32 M sucrose. Samples were sonicated and centrifuged at 800×g for 15 min at 4° C. Supernatants were then centrifuged at 12,000×g for 30 min at 4° C. Pellets were re-suspended in PBS pH 7.4 and subjected to 2 freeze-thaw cycles at −80° C. The suspension was finally centrifuged at 105,000×g for 1 hr at 4° C. and the supernatant containing rAC was then used in the enzymatic assay.
r-AC protein samples were pre-incubated with various concentrations of test compounds or vehicle control in 100 mM NaH2PO4/citrate buffer pH 4.5, 0.1% Nonidet P-40, 3 mM DTT for 30 min at 37° C. Samples were incubated with 100 μM N-lauroyl ceramide (Nu-Chek Prep, Elysian, Minn.) at 37° for 30 min. The reaction was stopped by addition of a mixture of chloroform/methanol (2:1 vol/vol) containing 1 nmol of heptadecanoic acid (HDA; NuChek Prep). The organic phases were collected, dried under nitrogen, and analyzed by LC/MS in the negative-ion mode using heptadecanoic acid (HDA) as internal standard (m/z=199 for lauric acid, m/z=269 for HDA). HDA was eluted on an XDB Eclipse C18 column isocratically at 2.2 mL/min for 1 min with a solvent mixture of 95% methanol and 5% water, both containing 0.25% acetic acid, and 5 mM ammonium acetate. The column temperature was 50° C. Electrospray ionization (ESI) was in the negative mode, capillary voltage was 4 kV, and fragmentor voltage was 100 V. Nitrogen was used as drying gas at a flow rate of 13 L/min and at a temperature of 350° C. Nebulizer pressure was set at 60 psi. We monitored [M-H]− in the selected-ion monitoring (SIM) mode using HDA as internal standard.
Inhibition of rAC activity was calculated as a reduction of lauric acid in the samples compared to vehicle controls. Median inhibitory concentration (IC50) values were calculated by non-linear regression analysis of log [concentration]/inhibition curves using. GraphPad Prism 5 (GraphPad Software, Inc., CA, USA) applying a standard slope curve fitting.

SW403 cells [5] = assay: SW403 cell viability, MTT assay; assay type: cell-based, human
Protocol: as §1
Alternatively, cell viability was assessed measuring mitochondrial functionality by the MIT assay, which is based on the reduction of the soluble tetrazolium salt MTT [(3-(4,5-dimethylthiazol-2-yl)-2,5-diphenyltetrazolium bromide] into insoluble formazan by mitochondria. Briefly, after treatment, cells were washed with PBS and incubated with 0.5 mg/ml, MTT for 2 hrs at room temperature, MTT reduction was quantified by absorbance at 570 nm using a UV-visible plate reader.

[6] = SW403 cells, 72 hrs, isobole of additivity, higher than the experimental values

Sequence of rat acid ceramidase (rAC) (Q6P7S1 142-394): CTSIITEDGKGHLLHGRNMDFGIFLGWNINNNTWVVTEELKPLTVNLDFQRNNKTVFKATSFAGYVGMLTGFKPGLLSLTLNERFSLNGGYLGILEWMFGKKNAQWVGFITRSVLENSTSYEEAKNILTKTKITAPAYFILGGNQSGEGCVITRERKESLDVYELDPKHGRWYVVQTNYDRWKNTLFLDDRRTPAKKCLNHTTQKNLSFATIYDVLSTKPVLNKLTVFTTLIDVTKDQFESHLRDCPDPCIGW
Sequence of rat acid ceramidase (rAC) (Q6P7S1 21-141): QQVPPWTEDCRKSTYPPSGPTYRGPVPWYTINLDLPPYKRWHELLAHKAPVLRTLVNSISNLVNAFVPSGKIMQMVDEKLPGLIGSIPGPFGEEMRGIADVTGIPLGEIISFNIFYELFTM

IC50 [4]: 0.01 µM
Structure (SMILES): CCCCCCNC(=O)n1cc(C(F)(F)F)c(=O)[nH]c1=O [Example 4, N-hexyl-2,4-dioxo-5-(trifluoromethyl)pyrimidine-1-carboxamide]
SW403 cell viability (trypan blue assay) (SW403 cells [1]): reduction of the viability
levels of C14:0, C16:0 and C18:0 ceramide [2]: increased
theoretical dose (Th) to be used with 20 nM taxol to obtain an additive effect (SW403 cells [3]; [6]): 4.9 µM
theoretical dose (Th) to be used with 300 nM 5FU to obtain an additive effect (SW403 cells [3]; [6]): 7.8 µM
interaction with taxol in reducing viability of SW403 cells (isobologram) (SW403 cells [3]; prolonged treatment, 20 nM taxol, trypan blue ED50): synergistic effect
interaction with 5-fluorouracil in reducing viability of SW403 cells (isobologram) (SW403 cells [3]; prolonged treatment, 300 nM 5FU, trypan blue ED50): synergistic effect
interaction with 5FU in reducing cell viability (MTT assay) (SW403 cells [5]; 72 hrs, compound 30 μM + 5FU 300 nM): synergistic effect
SW403 cell viability (MTT assay) (SW403 cells [5]; sub-chronic treatment 72 hrs, compounds 30 μM, 5FU 300 nM): reduced cell viability
